System: NuRD complex
Test: Expression-based proteomics (TMT-exp) of compound-treated T cells, NuRD complex
Type: cell-based, human
Settings: BPK-25 10 μM, 24 h; for decrease in GATAD2B, MBD2, MBD3, and MTA2 (NuRD complex proteins): BPK-21 20 μM, EV-3 10 μM, DMF 50 μM
Protocol: FIG. 7B is a scatter plot representation of protein abundance changes caused by BPK-25 (10 μM, 24 h) in two independent replicate experiments, with decreases in NuRD complex components highlighted in red. FIG. 7C is a heatmap of top proteins with decreased abundance in BPK-25-treated T cells showing that the subset of these proteins in the NuRD complex (asterisks) were largely unaltered by other active compounds and blocked in their degradation by co-treatment with the proteasome inhibitor MG132. […] FIG. 7E is a bar graph […] showing time-dependent reductions in NuRD complex members in human T cells treated with BPK-25 (10 μM). Left, representative western blots. Right, quantification of changes in protein. […] FIG. 7G is a heat map showing the changes in cysteine reactivity for NuRD complex members in human T cells treated with BPK-25 and other active compounds.
Freshly isolated T cells (1.6×10^7 cells, 2×10^6 cells/mL in RPMI media) were treated with compound or DMSO for 24 h, pelleted (600 g, 5 min), and washed with PBS (1×10 mL). The cells were then transferred to an Eppendorf tube in additional PBS (1 mL), pelleted (600 g, 5 min), flash frozen, and kept at −80° C. until further analysis. On the first day of the whole proteome TMT protocol, the cells were thawed on ice and lysed in lysis buffer (150 μL, 1 tablet of Roche complete, mini, EDTA-free Protease Inhibitor Cocktail dissolved in 10 mL of PBS) using a probe sonicator (2×8 pulses). Protein concentration was adjusted to 2.0 mg/mL and the samples (100 μL) were transferred to new Eppendorf tubes (1.5 mL) containing urea (48 mg/tube, final urea concentration: 8 M). DTT (5 μL, 200 mM fresh stock in H2O, final DTT concentration: 10 mM) was then added to the tubes and the samples were incubated at 65° C. for 15 min. Following this incubation, iodoacetamide (5 μL, 400 mM fresh stock in H2O, final IA concentration: 20 mM) was added and the samples were incubated in the dark at 37° C. with shaking for 30 min. Ice-cold MeOH (600 μL), CHCl3 (200 μL), and H2O (500 μL) were then added, the mixture was vortexed and centrifuged (10,000 g, 10 min, 4° C.) to afford a protein disc at the interface of CHCl3 and aqueous layers. The top layer was aspirated without perturbing the disk, additional MeOH (600 μL) was added and the proteins were pelleted (10,000 g, 10 min, 4° C.) and used in the next step or stored at −80° C. overnight.
The resulting protein pellets were resuspended in EPPS buffer (160 μL, 200 mM, pH 8) using a probe sonicator (2×6 pulses). […]
The sample became clear after the overnight digestion. At this point, peptide concentration was determined using microBCA assay (Thermo Scientific) according to manufacturer's instructions. […]

Structure (SMILES)	reduced abundance of additional NuRD complex members	decrease in GATAD2B, MBD2, MBD3, and MTA2 (NuRD complex proteins)
C=CC(=O)N(Cc1cccc(Cl)n1)c1ccc(C(=O)Nc2ccccc2)nc1 [BPK-25]	25-50%	> 50%
COC(=O)/C=C/C(=O)OC [DMF, reference compound]	–	not leading to NuRD complex degradation
